# US7435742B2, “Quinuclidine derivatives and pharmaceutical compositions containing the same” (Laboratorios Almirall S.A., priority 2002, dated 2008)
row,melting point [°C],SMILES
1,173.9 to 175.5,O=C(O[C@H]1C[N+]2(CCOc3ccccc3)CCC1CC2)N(Cc1cc(F)c(F)c(F)c1)c1cccc(F)c1.[Br-]
2,110,C=CC[N+]12CCC(CC1)[C@@H](OC(=O)N(Cc1cccs1)c1ccccc1)C2.[Br-]
3,117,O=C(O[C@H]1C[N+]2(CCOc3ccccc3)CCC1CC2)N(Cc1ccccc1)c1ccccc1.[Br-]
4,203,C[N+]12CCC(CC1)[C@@H](OC(=O)N(CCc1ccccc1)c1ccccc1)C2.[Br-]
5,143,O=C(O[C@H]1C[N+]2(CCCc3cccs3)CCC1CC2)N(Cc1cccs1)Cc1cccs1.[Br-]
6,137.3 to 139.1,Cc1cccc(N(Cc2cc(F)c(F)cc2F)C(=O)O[C@H]2C[N+]3(CCOc4ccccc4)CCC2CC3)c1.[Br-]
7,95,O=C(O[C@H]1C[N+]2(CCCc3cccs3)CCC1CC2)N(Cc1ccccc1)c1ccccc1.[Br-]
8,126,CCCCN(C(=O)O[C@H]1C[N+]2(CCCOc3ccc(F)cc3)CCC1CC2)c1ccccc1.[Cl-]
9,127,CCCCN(C(=O)O[C@H]1C[N+]2(CCCc3cccs3)CCC1CC2)c1ccccc1.[Br-]
10,73.3 to 74.1,O=C(O[C@H]1C[N+]2(CCCc3ccccc3)CCC1CC2)N(CC1CCCCC1)c1ccccc1F.[Br-]
11,73.1 to 74.5,O=C(O[C@H]1C[N+]2(CCOc3ccccc3)CCC1CC2)N(CC1CCCCC1)c1ccccc1F.[Br-]
12,133,O=C(O[C@H]1C[N+]2(CCOc3ccccc3)CCC1CC2)N(Cc1cccs1)c1ccccc1.[Br-]
